Results reported in patent US20230365537A1, “POLO LIKE KINASE 4 INHIBITORS” (ORIC Pharmaceuticals, Inc., priority 2021, published 2023).
pIC50: −log10 of the molar value.

Experiments:
human recombinant PLK4 = human recombinant PLK4 (Homo sapiens (Human), UniProt O00444); test: PLK4 Biochemical Assay (ADP-Glo); conditions: 0.5 nM PLK4, 8.0 µM ATP, 4.7 µM MBP, 6 hours at RT
In short: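 Luminescent ADP-Glo detection quantified ADP production, with ATP depletion for 40 min and detection for 30 min at room temperature. Compound and PLK4 (1.0 nM stock addition) were preincubated 15 min in HEPES pH 7.5 buffer containing MgCl2, EGTA, DTT, Brij-35 and BSA. IC50 values were obtained by four-parameter nonlinear regression.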

CHP-134 cells = test: CHP134 CellTiter-Glo (CTG) Assay; type: cell-based; conditions: Homo sapiens, CHP-134, 120 h, 5 days, viable cells by CellTiter-Glo
In short: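 Nine-point 1:3 dilution series, diluted into growth media, added in quadruplicate to CHP-134 cells plated 16 h earlier at 200 cells/well.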

[1] = target: human recombinant Aurora A (Homo sapiens (Human), UniProt O14965); test: Aurora A Kinase Biochemical Assay (ADP-Glo); conditions: ratio of Aurora A IC50 to PLK4 IC50 (selectivity)
human recombinant Aurora A, sequence (O14965 whole entry): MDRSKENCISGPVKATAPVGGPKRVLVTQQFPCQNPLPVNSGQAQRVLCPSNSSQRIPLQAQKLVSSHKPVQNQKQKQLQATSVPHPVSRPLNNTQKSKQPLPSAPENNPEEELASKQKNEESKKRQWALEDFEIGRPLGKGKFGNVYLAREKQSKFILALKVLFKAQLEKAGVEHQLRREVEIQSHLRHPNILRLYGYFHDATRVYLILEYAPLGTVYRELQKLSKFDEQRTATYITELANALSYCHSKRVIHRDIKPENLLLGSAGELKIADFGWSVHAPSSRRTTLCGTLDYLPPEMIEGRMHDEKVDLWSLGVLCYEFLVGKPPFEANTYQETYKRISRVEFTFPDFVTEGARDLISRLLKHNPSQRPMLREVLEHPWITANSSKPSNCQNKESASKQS

[2] = target: human recombinant Aurora B (Homo sapiens (Human), UniProt Q96GD4); test: Aurora B Kinase Biochemical Assay (ADP-Glo); conditions: ratio of Aurora B IC50 to PLK4 IC50 (selectivity)
human recombinant Aurora B, sequence (Q96GD4 whole entry): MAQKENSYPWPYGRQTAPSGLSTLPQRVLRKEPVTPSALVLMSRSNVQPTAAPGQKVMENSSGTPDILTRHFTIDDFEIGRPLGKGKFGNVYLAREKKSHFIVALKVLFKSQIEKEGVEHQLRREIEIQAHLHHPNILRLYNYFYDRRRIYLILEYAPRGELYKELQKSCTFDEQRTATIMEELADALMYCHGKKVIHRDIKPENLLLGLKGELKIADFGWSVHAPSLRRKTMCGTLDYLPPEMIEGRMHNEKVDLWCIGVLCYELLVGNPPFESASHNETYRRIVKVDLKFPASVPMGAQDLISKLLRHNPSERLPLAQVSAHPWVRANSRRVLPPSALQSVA
In short: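 IC50 derived by four-parameter nonlinear fit of ADP-Glo luminescence (ADP produced). Compound was preincubated 15 min at RT with 20 nM recombinant human Aurora B, in 50 mM HEPES pH 7.5, 10 mM MgCl2, 1 mM EGTA, 1 mM DTT, 0.01% Brij-35/BSA.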

human recombinant PLK4, sequence (O00444 whole entry): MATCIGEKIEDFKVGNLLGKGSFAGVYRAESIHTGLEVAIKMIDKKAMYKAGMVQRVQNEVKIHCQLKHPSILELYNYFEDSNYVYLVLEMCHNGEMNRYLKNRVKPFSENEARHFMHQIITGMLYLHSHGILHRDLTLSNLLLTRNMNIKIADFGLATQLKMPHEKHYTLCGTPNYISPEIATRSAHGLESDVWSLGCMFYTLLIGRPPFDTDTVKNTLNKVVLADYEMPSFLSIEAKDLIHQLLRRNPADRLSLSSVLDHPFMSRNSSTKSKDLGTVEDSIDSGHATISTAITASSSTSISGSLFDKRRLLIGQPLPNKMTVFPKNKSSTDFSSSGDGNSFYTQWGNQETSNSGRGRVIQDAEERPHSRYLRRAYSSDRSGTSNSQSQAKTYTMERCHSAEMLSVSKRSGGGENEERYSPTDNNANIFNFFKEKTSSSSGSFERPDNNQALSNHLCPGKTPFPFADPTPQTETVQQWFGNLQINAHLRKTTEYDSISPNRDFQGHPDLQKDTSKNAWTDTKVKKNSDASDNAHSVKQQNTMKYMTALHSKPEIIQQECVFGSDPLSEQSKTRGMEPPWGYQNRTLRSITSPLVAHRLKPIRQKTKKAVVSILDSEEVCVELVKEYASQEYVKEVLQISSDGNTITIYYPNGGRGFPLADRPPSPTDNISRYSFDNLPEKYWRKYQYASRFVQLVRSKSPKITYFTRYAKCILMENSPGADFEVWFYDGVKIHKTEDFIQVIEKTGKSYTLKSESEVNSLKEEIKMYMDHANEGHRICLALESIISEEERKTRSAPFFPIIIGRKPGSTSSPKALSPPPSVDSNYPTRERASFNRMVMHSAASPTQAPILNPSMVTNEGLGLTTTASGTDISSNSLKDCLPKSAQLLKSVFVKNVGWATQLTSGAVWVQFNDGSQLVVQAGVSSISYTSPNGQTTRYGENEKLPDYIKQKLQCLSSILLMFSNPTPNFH

| pIC50 (human recombinant PLK4) | [Aurora A IC50 (nM)]/[PLK4 IC50 (nM)] [1] | [Aurora B IC50 (nM)]/[PLK4 IC50 (nM)] [2] | SMILES | pIC50 (CHP-134 cells) |
| --- | --- | --- | --- | --- |
| 8.09 | 720.7185 | 366.7569 | COc1ccc2c(c1)[C@]1(C[C@H]1c1ccc3c(Nc4ccc(C)nc4OC)n[nH]c3c1)C(=O)N2 [Example 150, (1R,2S)-5′-methoxy-2-{3-[(2-methoxy-6-methylpyridin-3-yl)amino]-1H-indazol-6-yl}spiro[cyclopropane-1,3′-indol]-2′(1′H)-one] | 5.50 |
| 8.72 | 1254.4596 | 123.6097 | COc1ccc2c(c1)[C@]1(C[C@H]1c1ccc3c(Nc4nc(C)nc5c4OCC5)n[nH]c3c1)C(=O)N2 [Example 153, (1R,2S)-5′-methoxy-2-{3-[(2-methyl-6,7-dihydrofuro[3,2-d]pyrimidin-4-yl)amino]-1H-indazol-6-yl}spiro[cyclopropane-1,3′-indol]-2′(1′H)-one] | 6.06 |
| 9.01 | 1373.9754 | 655.2254 | COc1ccc2c(c1)[C@]1(C[C@H]1c1ccc3c(Nc4nc(C5CCOCC5)ncc4OC)n[nH]c3c1)C(=O)N2 [Example 154, (1R,2S)-5′-methoxy-2-(3-{[5-methoxy-2-(oxan-4-yl)pyrimidin-4-yl]amino}-1H-indazol-6-yl)spiro[cyclopropane-1,3′-indol]-2′(1′H)-one] | 6.58 |
| 8.99 | 305.4106 | 68.0773 | COc1ccc2c(c1)[C@]1(C[C@H]1c1ccc3c(Nc4nc(SC)ncc4OC)n[nH]c3c1)C(=O)N2 [Example 155, (1R,2S)-5′-methoxy-2-(3-{[5-methoxy-2-(methylsulfanyl)pyrimidin-4-yl]amino}-1H-indazol-6-yl)spiro[cyclopropane-1,3′-indol]-2′(1′H)-one] | 6.72 |
| 8.71 | 510.6317 | 303.9548 | COc1ccc2c(c1)[C@]1(C[C@H]1c1ccc3c(Nc4nc(N5CCC5)ncc4OC)n[nH]c3c1)C(=O)N2 [Example 157, (1R,2S)-2-(3-{[2-(azetidin-1-yl)-5-methoxypyrimidin-4-yl]amino}-1H-indazol-6-yl)-5′-methoxyspiro[cyclopropane-1,3′-indol]-2′(1′H)-one] | 6.54 |
| 8.71 | 309.7350 | 58.0530 | COc1ccc2c(c1)[C@]1(C[C@H]1c1ccc3c(Nc4nc(C)nc5c4CCC5)n[nH]c3c1)C(=O)N2 [Example 159, (1R,2S)-5′-methoxy-2-{3-[(2-methyl-6,7-dihydro-5H-cyclopenta[d]pyrimidin-4-yl)amino]-1H-indazol-6-yl}spiro[cyclopropane-1,3′-indol]-2′(1′H)-one] | 5.89 |
| 8.71 | 545.5487 | 149.5859 | CCc1ncc(OC)c(Nc2n[nH]c3cc([C@@H]4C[C@@]45C(=O)Nc4ccc(OC)cc45)ccc23)n1 [Example 160, (1R,2S)-2-{3-[(2-ethyl-5-methoxypyrimidin-4-yl)amino]-1H-indazol-6-yl}-5′-methoxyspiro[cyclopropane-1,3′-indol]-2′(1′H)-one] | 6.51 |
| 8.66 | 291.4932 | 258.4163 | COc1ccc2c(c1)[C@]1(C[C@H]1c1ccc3c(Nc4cc5cccnc5cc4OC)n[nH]c3c1)C(=O)N2 [Example 161, (1R,2S)-5′-methoxy-2-{3-[(7-methoxyquinolin-6-yl)amino]-1H-indazol-6-yl}spiro[cyclopropane-1,3′-indol]-2′(1′1H)-one] | 6.45 |
| 8.82 | 2164.0420 | 389.4357 | COc1ccc2c(c1)[C@]1(C[C@H]1c1ccc3c(Nc4nc5ccccc5cc4OC)n[nH]c3c1)C(=O)N2 [Example 163, (1R,2S)-5′-methoxy-2-{3-[(3-methoxyquinolin-2-yl)amino]-1H-indazol-6-yl}spiro[cyclopropane-1,3′-indol]-2′(1′H)-one] | 6.65 |
| 8.20 | 397.0049 | 161.2235 | COc1cnc(OC)c(Nc2n[nH]c3cc([C@@H]4C[C@@]45C(=O)Nc4ccc(OC)cc45)ccc23)c1 [Example 164, (1R,2S)-2-{3-[(2,5-dimethoxypyridin-3-yl)amino]-1H-indazol-6-yl}-5′-methoxyspiro[cyclopropane-1,3′-indol]-2′(1′H)-one] | 5.79 |
| 8.33 | 111.2559 | 76.9329 | COc1ccc2c(c1)[C@]1(C[C@H]1c1ccc3c(Nc4nc(Cl)nc5ccoc45)n[nH]c3c1)C(=O)N2 [Example 165, (1R,2S)-2-{3-[(2-chlorofuro[3,2-d]pyrimidin-4-yl)amino]-1H-indazol-6-yl}-5′-methoxyspiro[cyclopropane-1,3′-indol]-2′(1′H)-one] | 5.97 |
| 9.10 | 1151.3716 | 68.4539 | COc1ccc2c(c1)[C@]1(C[C@H]1c1ccc3c(Nc4ccc(C(=O)N(C)C)nc4OC)n[nH]c3c1)C(=O)N2 [Example 166, 6-methoxy-5-({6-[(1R,2S)-5′-methoxy-2′-oxo-1′,2′-dihydrospiro[cyclopropane-1,3′-indol]-2-yl]-1H-indazol-3-yl}amino)-N,N-dimethylpyridine-2-carboxamide] | 7.09 |
| 8.93 | 295.5932 | 916.9492 | COc1ccc2c(c1)[C@]1(C[C@H]1c1ccc3c(Nc4nc(N5CCCC5)ncc4OC)n[nH]c3c1)C(=O)N2 [Example 167, (1R,2S)-5′-methoxy-2-(3-{[5-methoxy-2-(pyrrolidin-1-yl)pyrimidin-4-yl)amino}-1H-indazol-6-yl)spiro[cyclopropano-1,3′-indol]-2′(1′H)-one] | 6.67 |
| 9.00 | 666.9347 | 431.4573 | COc1ccc2c(c1)[C@]1(C[C@H]1c1ccc3c(Nc4nc(N5CC[C@@H](F)C5)ncc4OC)n[nH]c3c1)C(=O)N2 [Example 169] | 6.72 |
| 8.87 | 694.1090 | 587.9234 | COc1ccc2c(c1)[C@]1(C[C@H]1c1ccc3c(Nc4nc(N5CCC(F)(F)C5)ncc4OC)n[nH]c3c1)C(=O)N2 [Example 170, (1R,2S)-2-(3-{[2-(3,3-difluoropyrrolidin-1-yl)-5-methoxypyrimidin-4-yl]amino}-1H-indazol-6-yl)-5′-methoxyspiro[cyclopropane-1,3′-indol]-2′(1′H)-one] | 6.49 |
| 8.23 | 1176.6309 | 259.2403 | COc1ccc2c(c1)[C@]1(C[C@H]1c1ccc3c(Nc4nc(Cl)nc5ccn(C)c45)n[nH]c3c1)C(=O)N2 [Example 171, (1R,2S)-2-{3-[(2-chloro-5-methyl-5H-pyrrolo[3,2-d]pyrimidin-4-yl)amino]-1H-indazol-6-yl}-5′-methoxyspiro[cyclopropane-1,3′-indol]-2′(1′H)-one] | 5.82 |
